Results: patent publication US20230201151A1, “FORMULATIONS AND METHODS FOR TREATING ACUTE RESPIRATORY DISTRESS SYNDROME, ASTHMA, OR ALLERGIC RHINITIS” (UNIVERSITY OF FLORIDA RESEARCH FOUNDATION, INC., priority 2020, published 2023)

Experiments:
Assay type in all cases: cell-based, human
HBEC = assay: Barrier function in IL-13-treated differentiated HBEC, Examples 1-2; conditions: IL-13 20 ng/mL
Method: Experimental design: IL-13 treatment with 20 ng/mL media for 4 and 14 days. Ussing chamber experiment in Basic Ringer (5 mM glucose in basolateral side).
To investigate the importance of ENaC during inflammation and explore how its activity is modulated during the evolution of ARDS, the present inventors used primary cultures of human bronchial epithelial cells (HBEC) harvested from normal human lungs, which had been differentiated in vitro in an air-media interphase (air on the apical side and media on the basolateral side) for 30 days. Differentiated HBEC were used for electrophysiology experiments to evaluate the effect of IL-13 on these cells. […] Similarly, IL-13 (20 ng/mL) caused a maximum reduction in barrier function on day 8 of exposure.

ENaC = assay: Benzamil-sensitive Isc (ENaC activity) in differentiated HBECs, Ussing chamber
Method: (§1) High individual variation in benzamil-sensitive current and TEER in HBECs. In an Ussing chamber-based experimental design, basal short-circuit current (Isc) and transepithelial electrical resistance (TEER) were recorded in differentiated HBECs from two lung donors that were grown on snapwells at an air-liquid interface for 28 to 35 days. Benzamil, a potent ENaC blocker was used to determine ENaC activity by calculating benzamil-sensitive Isc from changes in Isc that occur 15 minutes after adding 6 μM benzamil to the apical side of cells. […] Therefore, normalized data were used for all subsequent experiments for statistical analyses relating to FIGS. 13-18.
(§2) Basal treatment with cytokines [IL-13 (Abcam), IL-4 (PeproTech), TNF-α, IFN-γ and TGF-β1 (R&D Systems)] diluted in ALI medium started as early as day 14 post differentiation. Individual cytokines or cytokine cocktails were added to the culture medium at the desired concentrations and cells were incubated with the cytokines for a maximum of 16 days. ALI medium containing cytokines was changed every two days. Age-matched HBECs were assigned to the following treatment groups:
(§3) II Time-dependent studies: These studies were done using a concentration that ensured maximum inhibition of benzamil-sensitive Isc and TEER. HBECs were treated with respective cytokines for 2, 4, 6, 8, 10, 12, 14, or 16 days. IFN-γ, TNF-α or TGF-β1 at 1 ng/mL, IL-13 at 20 ng/mL and IL-4 at 2 ng/mL were used.
(§4) III Cytokine cocktails: were prepared using IFN-γ and TNF-α at 0.05, 0.5, 2.5, 5 and 10 ng/mL while TNF-α, IFN-γ and TGF-β1 at 1 ng/mL for each of the cytokines was added to the culture media for 7 days.
(§5) Ussing chamber experiments: Snapwells with differentiated HBECs that were incubated with cytokines or age-matched HBECs without cytokine exposure were mounted in Ussing chambers (Physiologic Instruments), and cells were either bathed in isotonic ringer solution containing 113.8 mM Na^+, 93.6 mM Cl^−, 25 mM HCO3^−, 5.2 mM K^+, 2.4 mM HPO4^−, 0.4 mM H2PO4^−, 1.2 mM Mg^2+, 1.2 mM Ca^2+, and 75 mM mannitol, or in AA-EC01. Glucose (5 mM) was added to the basal side, and chambers were bubbled with 95% O2 and 5% CO2 at 37° C. AA-EC01 contained 8 mM lysine, 8 mM tryptophan, 8 mM arginine, 8 mM glutamine, and 1.2 mM tyrosine, and AANC contained 8 mM leucine, 8 mM cysteine, 8 mM isoleucine, 8 mM aspartic acid and 8 mM glutamate (Ajinomoto), both diluted in an electrolyte solution containing 113.8 mM Na^t, 93.6 mM Cl^−, 25 mM HCO3^−, 5.2 mM K^+, 2.4 mM HPO4^−, 0.4 mM H2PO4^−, 1.2 mM Mg′, 1.2 mM Ca^2+ and 40 mM mannitol at pH 7.4 and 300 mOsm. Cell cultures were allowed to equilibrate in the Ussing chambers for 30 minutes while continuously voltage clamped to 0 mV. Basal short circuit current (Isc) and transepithelial electrical resistance (TEER) were recorded at 30-second intervals, and benzamil-sensitive Isc was calculated from the difference of basal Isc recorded after 30 minutes and Isc measured at 15 minutes after adding 6 μM of benzamil (ThermoFisher) to the apical side.
(§6) Statistical analysis: Results are presented as mean±standard error of mean (SEM). Analyses were performed with OriginPro 2018 software package. For each treatment group, values were tested for normal distribution using the Shapiro-Wilk normality test. […] The values were normalized to controls within the group, and data were pooled for comparison between groups. Kruskal-Wallis test was used for comparing the overall effect of ringer, AA-EC01 and AANC on benzamil-sensitive Isc and TEER, and Mann Whitney U test was used for pairwise comparison within the group and for comparison between basal values for each cytokine at zero ng/mL or day zero with each concentration and time period studied. P<0.05 was considered significant, and NS indicates not significant.

HBECs = assay: TEER (epithelial barrier function) in differentiated HBECs, Ussing chamber
Method: as §1, §2, §3, §4, §5, §6

Substance: IL-13: Th2 cytokine (Abcam) added to HBEC culture medium
- day of maximum reduction in barrier function (HBEC): 8 days
- benzamil-sensitive Isc, normalized to control (ENaC; IL-13 0.1 ng/mL, 14 days): 50.9±9.6%
- day by which benzamil-sensitive Isc was completely suppressed (ENaC; IL-13 20 ng/mL, 16-day incubation): ≤ 8 days
- benzamil-sensitive Isc, of baseline value (ENaC; IL-13 20 ng/mL, day 2): 25.0±5%
- concentration at which benzamil-sensitive Isc was completely abolished (ENaC; IL-13, 14 days): 8 ng/mL
- TEER, normalized to control (HBECs; IL-13 2 ng/mL, 14 days): 59.9±7.6%
- TEER, normalized to control (maximum reduction) (HBECs; IL-13 4 ng/mL, 14 days): 41.3±6.9%
- TEER, normalized to control (maximum reduction) (HBECs; IL-13 20 ng/mL, day 10): 48.7±3.6%
